Our source for the Activity values is ChEMBL document CHEMBL1159214, “The antiallergic activities of synthetic acrophylline and acrophyllidine” (J Nat Prod, 1995).

Test [1] has as its system Mast cell. The experiment in a line: Inhibition of compound 48/80-challenged Sprague-Dawley rat peritoneal mast cell degranulation assessed as beta-glucuronidase release at 10 uM administered 3 mins prior to compound 48/80 challenge measured after 15 mins. Type of test: functional, cell-based.
The subject of the next test is Mus musculus. The experiment in a line: Suppression of anti-dinitrophenyl-coupled albumin-induced passive cutaneous anaphylaxis reaction-associated ear edema in mouse assessed as reduction of volume of plasma exudation at 30 umol/kg, ip administered 30 mins prior to DNP-albumin challenge measured after 45 mins. Type of test: functional, organism-based.
In test [2] the test system is Mast cell. The experiment in a line: Inhibition of compound 48/80-challenged Sprague-Dawley rat peritoneal mast cell degranulation assessed as beta-glucuronidase release at 30 uM administered 3 mins prior to compound 48/80 challenge measured after 15 mins. Type of test: functional, cell-based.
Test [3] relates to Mast cell. Briefly: Inhibition of compound 48/80-challenged Sprague-Dawley rat peritoneal mast cell degranulation assessed as beta-glucuronidase release up to 100 uM administered 3 mins prior to compound 48/80 challenge measured after 15 mins. The test is classed as functional, cell-based.

Each structure is given as a SMILES string. Active and inactive are the calls of the source. The rule behind the calls is not given here.

For the compound `COc1ccc2c(=O)c3ccoc3n(CC=C(C)C)c2c1`, the result with Mast cell [1], in the test on Mus musculus and in the test with Mast cell [2] was Active.

As to `COc1ccc2c(=O)c3ccoc3n(CCC(C)(C)O)c2c1`, the result with Mus musculus was Active. Further, the outcome with Mast cell [3] was inactive.
